Bounds are passed on as bounds.

The experiment deals with human TYK2 (JH2domain-pseudokinase) (Homo sapiens (Human), UniProt P29597). As to the kind of experiment: TYK2 JH2 Domain Binding Assay (KINOMEscan, DiscoveRx). As to conditions: 11-point dilution, duplicate. The essentials: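 TYK2 JH2 (G556–D888)–NFkB DBD fusion, DNA-tagged, from HEK293 extracts (<0.1 nM) competed against immobilised biotinylated ligand for 1 h at room temperature, 0.9% DMSO. Bead-retained kinase quantified by qPCR; Kd from 11-point 3-fold series (top 30,000 nM, duplicate), Hill fit with slope −1.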
human TYK2 (JH2domain-pseudokinase), sequence (P29597 556-888): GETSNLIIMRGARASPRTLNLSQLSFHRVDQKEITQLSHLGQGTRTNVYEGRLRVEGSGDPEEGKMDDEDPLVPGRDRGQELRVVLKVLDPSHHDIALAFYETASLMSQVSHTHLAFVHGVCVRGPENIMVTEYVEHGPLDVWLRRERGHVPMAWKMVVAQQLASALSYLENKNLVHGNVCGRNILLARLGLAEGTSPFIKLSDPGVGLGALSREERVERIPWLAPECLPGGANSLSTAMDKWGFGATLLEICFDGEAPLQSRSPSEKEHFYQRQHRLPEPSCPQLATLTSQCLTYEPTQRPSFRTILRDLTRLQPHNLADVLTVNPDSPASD
As a reminder, the Kd is the equilibrium constant for the complex coming apart. A high value points to weaker binding. The compound `Cc1cn(C)c(-c2ccc(Nc3cc(NC(=O)C4CC4)nc4[nH]c(C(F)F)nc34)c(N(C)S(C)(=O)=O)c2)n1` [I-175, N-(2-(difluoromethyl)-7-((4-(1,4-dimethyl-1H-imidazol-2-yl)-2-(N-methylmethylsulfonamido)phenyl)amino)-3H-imidazo[4,5-b]pyridin-5-yl)cyclopropane-Carboxamide] came in with a Kd of 0.5 to 1 nM.

Regarding `Cc1cn(C)c(-c2ccc(Nc3cc(NC(=O)C4CC4)nc4[nH]c(C)nc34)c(N(C)S(C)(=O)=O)c2)n1` [I-176, N-(7-((4-(1,4-dimethyl-1H-imidazol-2-yl)-2-(N-methylmethyl-sulfonamido)phenyl)amino)-2-methyl-3H-imidazo[4,5-b]pyridin-5-yl)cyclopropane-carboxamide], the Kd is 0.5 to 1 nM.

Compound `Cc1nc2c(Nc3ccccc3S(C)(=O)=O)cc(NC(=O)C3CC3)nc2[nH]1` [I-177, N-(2-methyl-7-((2-(methylsulfonyl)phenyl)amino)-3H-imidazo[4,5-b]pyridin-5-yl)cyclopropanecarboxamide] had a dissociation constant Kd of 0.1 to 0.5 nM.

Take `CN(c1cc(C(F)F)ccc1Nc1cc(Nc2cccc(C#N)n2)nc2[nH]c(C(F)F)nc12)S(C)(=O)=O` [I-178, N-(2-((5-((6-cyanopyridin-2-yl)amino)-2-(difluoromethyl)-3H-imidazo[4,5-b]pyridin-7-yl)amino)-5-(difluoromethyl)phenyl)-N-methylmethanesulfonamide]: the Kd fell in the range of 0.1 to 0.5 nM.

In the case of `CN(c1ccccc1Nc1cc(Nc2cccc(C#N)n2)nc2[nH]c(C(F)F)nc12)S(=O)(=O)C1CC1` [I-179], the dissociation constant Kd fell in the range of 0.1 to 0.5 nM.

`Cc1nc2c(Nc3ccccc3N(C)S(=O)(=O)C3CC3)cc(Nc3cccc(C#N)n3)nc2[nH]1` [I-180, N-(2-((5-((6-cyanopyridin-2-yl)amino)-2-methyl-3H-imidazo[4,5-b]pyridin-7-yl)amino)phenyl)-N-methylcyclopropanesulfonamide]: the Kd is 0.1 to 0.5 nM.

`CCS(=O)(=O)N(C)c1ccccc1Nc1cc(Nc2cccc(C#N)n2)nc2[nH]c(C)nc12` [I-181, N-(2-((5-((6-cyanopyridin-2-yl)amino)-2-methyl-3H-imidazo[4,5-b]pyridin-7-yl)amino)phenyl)-N-methylethanesulfonamide] gave a dissociation constant (Kd) of 0.1 to 0.5 nM.

As to `CN(c1cc(C2CCOCC2)ccc1Nc1cc(NC(=O)C2CC2)nc2[nH]c(C(F)F)nc12)S(C)(=O)=O` [I-182, N-(2-(difluoromethyl)-7-((2-(N-methylmethylsulfonamido)-4-(tetrahydro-2H-pyran-4-yl)phenyl)amino)-3H-imidazo[4,5-b]pyridin-5-yl)cyclopropanecarboxamide], the equilibrium dissociation constant (Kd) lay in the range of 0.1 to 0.5 nM.

In the case of `CN(c1cc(C2CC2)ccc1Nc1cc(NC(=O)C2CC2)nc2[nH]c(C(F)F)nc12)S(C)(=O)=O` [I-183, N-(7-((4-cyclopropyl-2-(N-methylmethylsulfonamido)phenyl)amino)-2-(difluoromethyl)-3H-imidazo[4,5-b]pyridin-5-yl)cyclopropanecarboxamide], the dissociation constant (Kd) lay in the range of 0.1 to 0.5 nM.

`Cc1nc2c(Nc3ccc(C4CC4)cc3N(C)S(C)(=O)=O)cc(NC(=O)C3CC3)nc2[nH]1` [I-184, N-(7-((4-cyclopropyl-2-(N-methylmethylsulfonamido)phenyl)amino)-2-methyl-3H-imidazo[4,5-b]pyridin-5-yl)cyclopropanecarboxamidee] registered a Kd of 0.1 to 0.5 nM.

The compound `Cc1ccc(Nc2cc(Nc3ccc(Cl)cc3S(C)(=O)=O)c3nc(C(F)F)[nH]c3n2)nn1` [I-185, N7-(4-chloro-2-(methylsulfonyl)phenyl)-2-(difluoromethyl)-N5-(6-methylpyridazin-3-yl)-3H-imidazo[4,5-b]pyridine-5,7-diamine] had a Kd of 0.1 to 0.5 nM.

`Cc1nc2c(Nc3ccc(Cl)cc3S(C)(=O)=O)cc(Nc3cccc(C#N)n3)nc2[nH]1` [I-186, 6-((7-((4-chloro-2-(methylsulfonyl)phenyl)amino)-2-methyl-3H-imidazo[4,5-b]pyridin-5-yl)amino)picolinonitrile] yielded a Kd of 0.1 to 0.5 nM.

Consider `Cc1cc(-c2ccc(Nc3cc(NC(=O)C4CC4)nc4[nH]c(C(F)F)nc34)c(N(C)S(C)(=O)=O)c2)nn1C` [I-187, N-(2-(difluoromethyl)-7-((4-(1,5-dimethyl-1H-pyrazol-3-yl)-2-(N-methylmethylsulfonamido)phenyl)amino)-3H-imidazo[4,5-b]pyridin-5-yl)cyclopropanecarboxamide], for which the Kd was in the range of 0.1 to 0.5 nM.

For the compound `Cc1nc2c(Nc3ccc(C4CC4)cc3S(C)(=O)=O)cc(NC(=O)C3CC3)nc2[nH]1` [I-188], the dissociation constant (Kd) fell in the range of 0.1 to 0.5 nM.

`Cc1ccc(Nc2cc(Nc3ccc(Cl)cc3S(C)(=O)=O)c3nc(C)[nH]c3n2)nn1` [I-189, N7-(4-chloro-2-(methylsulfonyl)phenyl)-2-methyl-N5-(6-methylpyridazin-3-yl)-3H-imidazo[4,5-b]pyridine-5,7-diamine]: the equilibrium dissociation constant (Kd) lay in the range of 0.1 to 0.5 nM.

As to `CCS(=O)(=O)N(C)c1ccccc1Nc1cc(Nc2cccc(C#N)n2)nc2[nH]c(C(F)F)nc12` [I-190, N-(2-((5-((6-cyanopyridin-2-yl)amino)-2-(difluoromethyl)-3H-imidazo[4,5-b]pyridin-7-yl)amino)phenyl)-N-methylethanesulfonamide], the Kd is greater than 10 nM.

Turning to `CS(=O)(=O)c1cc(Cl)ccc1Nc1cc(Nc2cccc(C#N)n2)nc2[nH]c(C(F)F)nc12` [I-191, 6-((7-((4-chloro-2-(methylsulfonyl)phenyl)amino)-2-(difluoromethyl)-3H-imidazo[4,5-b]pyridin-5-yl)amino)picolinonitrile], the Kd fell in the range of 0.5 to 1 nM.

On to `Cc1nc2c(Nc3ccc(Cl)cc3S(C)(=O)=O)cc(NC(=O)[C@H]3C[C@H]3F)nc2[nH]1` [I-192, (1R,2R)—N-(7-((4-chloro-2-(methylsulfonyl)phenyl)amino)-2-methyl-3H-imidazo[4,5-b]pyridin-5-yl)-2-fluorocyclopropane-1-carboxamide], for which the Kd was 1 to 10 nM.

Compound `Cc1nc2c(Nc3ccc(-c4cc(C)n(C)n4)cc3N(C)S(C)(=O)=O)cc(NC(=O)C3CC3)nc2[nH]1` [I-193, N-(7-((4-(1,5-dimethyl-1H-pyrazol-3-yl)-2-(N-methylmethylsulfonamido)phenyl)amino)-2-methyl-3H-imidazo[4,5-b]pyridin-5-yl)cyclopropanecarboxamide] displayed a Kd greater than 10 nM.

Compound `Cc1nc2c(Nc3ccc(-c4cn(C)nc4C)cc3N(C)S(C)(=O)=O)cc(NC(=O)C3CC3)nc2[nH]1` [I-194, N-(7-((4-(1,3-dimethyl-1H-pyrazol-4-yl)-2-(N-methylmethylsulfonamido)phenyl)amino)-2-methyl-3H-imidazo[4,5-b]pyridin-5-yl)cyclopropanecarboxamide] returned an equilibrium dissociation constant (Kd) greater than 10 nM.

For the compound `Cc1nc2c(Nc3ccc(C(F)F)cc3N(C)S(C)(=O)=O)cc(Nc3cccc(C#N)n3)nc2[nH]1` [I-195, N-(2-((5-((6-cyanopyridin-2-yl)amino)-2-methyl-3H-imidazo[4,5-b]pyridin-7-yl)amino)-5-(difluoromethyl)phenyl)-N-methylmethanesulfonamide], the equilibrium dissociation constant (Kd) lay in the range of 0.1 to 0.5 nM.

`Cc1nc2c(Nc3ccc(C4CCOCC4)cc3N(C)S(C)(=O)=O)cc(NC(=O)C3CC3)nc2[nH]1` [I-196, N-(2-methyl-7-((2-(N-methylmethylsulfonamido)-4-(tetrahydro-2H-pyran-4-yl)phenyl)amino)-3H-imidazo[4,5-b]pyridin-5-yl)cyclopropanecarboxamide]: the dissociation constant (Kd) was in the range of 0.5 to 1 nM.

The compound `Cc1nn(C)cc1-c1ccc(Nc2cc(NC(=O)C3CC3)nc3[nH]c(C(F)F)nc23)c(N(C)S(C)(=O)=O)c1` [I-197, N-(2-(difluoromethyl)-7-((4-(1,3-dimethyl-1H-pyrazol-4-yl)-2-(N-methylmethylsulfonamido)phenyl)amino)-3H-imidazo[4,5-b]pyridin-5-yl)cyclopropanecarboxamide] returned an equilibrium dissociation constant (Kd) of 0.1 to 0.5 nM.

`Cc1c(-c2ccc(Nc3cc(NC(=O)C4CC4)nc4[nH]c(C(F)F)nc34)c(N(C)S(C)(=O)=O)c2)cnn1C` [I-198, N N-(2-(difluoromethyl)-7-((4-(1,5-dimethyl-1H-pyrazol-4-yl)-2-(N-methylmethylsulfonamido)phenyl)amino)-3H-imidazo[4,5-b]pyridin-5-yl)cyclopropanecarboxamide] gave a Kd of less than 0.1 nM.

`Cc1nc2c(Nc3ccc(-c4cnn(C)c4C)cc3N(C)S(C)(=O)=O)cc(NC(=O)C3CC3)nc2[nH]1` [I-199, N-(7-((4-(1,5-dimethyl-1H-pyrazol-4-yl)-2-(N-methylmethylsulfonamido)phenyl)amino)-2-methyl-3H-imidazo[4,5-b]pyridin-5-yl)cyclopropanecarboxamide] displayed a Kd of less than 0.1 nM.

Regarding `[2H]C([2H])([2H])N(c1ccccc1Nc1cc(Nc2cc(C)nc(C)n2)nc2[nH]c(C(F)F)nc12)S(C)(=O)=O` [I-200, N-(2-((2-(difluoromethyl)-5-((2,6-dimethylpyrimidin-4-yl)amino)-3H-imidazo[4,5-b]pyridin-7-yl)amino)phenyl)-N-(methyl-d3)methanesulfonamide], the Kd lay in the range of 0.1 to 0.5 nM.

The compound `[2H]C([2H])([2H])N(c1ccccc1Nc1cc(Nc2cc(C)nc(C)n2)nc2[nH]c(C)nc12)S(C)(=O)=O` [I-201, N-(2-((5-((2,6-dimethylpyrimidin-4-yl)amino)-2-methyl-3H-imidazo[4,5-b]pyridin-7-yl)amino)phenyl)-N-(methyl-d3)methanesulfonamide] yielded a Kd of 0.1 to 0.5 nM.

`CN(c1cc(C(F)F)ccc1Nc1cc(Nc2ccn(C)n2)nc2[nH]c(C(F)F)nc12)S(C)(=O)=O` [I-202, N-(5-(difluoromethyl)-2-((2-(difluoromethyl)-5-((1-methyl-1H-pyrazol-3-yl)amino)-3H-imidazo[4,5-b]pyridin-7-yl)amino)phenyl)-N-methylmethanesulfonamide] had a Kd of 0.5 to 1 nM.

For the compound `CS(=O)(=O)c1cc(C2CC2)ccc1Nc1cc(NC(=O)C2CC2)nc2[nH]c(C(F)F)nc12` [I-203], the Kd lay within 0.1 to 0.5 nM.

(Values after US10647713B2 (Nimbus Lakshmi, Inc., priority 2016, dated 2020).)
